Patent US20250387415A1, “COMPOSITIONS OF COPPER COMPLEXES” (University of Lancashire, priority 2022, published 2025)

Assays:
[1] = Maximum copper complex content (solubility / encapsulation) of lipid formulations; assay type: physicochemical
Description: Spatula or similar tools were used to blend the constituents until homogeneous. • Mixtures were heated (to 40-60° C.) using block heater.

[2] = background; cited from earlier work
[3] = background; cited from earlier work; remark: listed apart in the source
[4] = Solubility limit in cubosomes solution (F03 nanostructured dispersions), sedimentation; assay type: physicochemical
Description: The numbers in mg indicate CuASP content in 10 g cubosomes solution (formed of 0.5 g lipid+9.5 g of 0.5% F127 solution in water).

[5] = Centrifugation (200 rpm for 5 min) of F01 encapsulation mixtures; assay type: physicochemical; details: encapsulated mixture in MO or DU, visibly homogeneous at room temperature before
Description: It was in fact possible to add up to 126 mg of CuASP in 1 g of MO (as per F01-CuASP-MO-E) and up to about 130 mg in 1 g of DU (as per F01-CuASP-DU-E) (FIG. 4). […] With mere mixing by spatula the formulation was again homogeneous thereby encapsulating excess CuASP in the lipid phase.
With mere mixing by spatula the formulation was again homogeneous thereby encapsulating excess CuSL in the lipid phase.

[6] = Hydrated lipid systems (F02): transparency check method for maximum solubility / encapsulation; assay type: physicochemical
Description: Briefly, 1 mm thick transparent glass slide with a small well was filled with corresponding formulation and its ability to see-through was checked, as shown by photographs referenced in Table 2.
Briefly, 1 mm thick transparent glass slide with a small well was filled with corresponding formulation and its ability to see-through was checked, as shown by photographs referenced in Table 3.

[7] = background; cited from earlier work; remark: listed apart in the source

## CC(=O)Oc1ccccc1C(=O)[O-].CC(=O)Oc1ccccc1C(=O)[O-].CC(=O)Oc1ccccc1C(=O)[O-].CC(=O)Oc1ccccc1C(=O)[O-].[Cu+2].[Cu+2] [CuASP, Copper (II) Aspirinate]
[1]; non-aqueous lipids (MO, DU), F01
  solubility in lipids: 1 mg/g
[1]; non-aqueous, in 1 g of DU (F01-...-DU-E)
  amount possible to add (encapsulation) in 1 g of DU: up to 130 mg
[1]; non-aqueous, in 1 g of MO (F01-...-MO-E)
  amount possible to add (encapsulation) in 1 g of MO: up to 126 mg
[2]
  solubility in water: poorly soluble in water
[3]
  potency as an anti-inflammatory agent compared to aspirin: more potent
[4]; 10 g cubosomes (0.5 g lipid + 9.5 g of 0.5% F127 solution)
  solubility limit in cubosomes solution per g of lipid: 50 mg/g of lipid
[4]; in 10 g cubosomes (0.5 g lipid + 9.5 g of 0.5% F127 solution in water)
  content that was sedimented in cubosomes solution: 26 mg
[5]
  sedimentation after centrifugation: some part of the powder sedimented
[6]; in 1.25 g cubic phase
  amount encapsulated in DU cubic phase: 400 mg
[6]; viscous cubic phase in presence of water
  amount encapsulated in DU cubic phase per g of lipid: About 533 mg per g of lipid
[7]
  irritancy to digestive track compared to aspirin: less irritant
